Biological target: recombinant CpLDH protein (Cryptosporidium parvum, UniProt Q9GT92, F198L/K295E/R251K)

SMILES | MEAN CpLDH INHIBITION (%)
CCOC(=O)/C(=C/c1ccc(N(C)C)cc1)N(CC)CC [NSC643774] | -24.42%
O=C1C2=Nc3ccccc3C(O)N2c2ccccc21 (centres unmarked) [NSC292147] | -13.84%
NC(=O)C#CC(N)=O [NSC65381] | 0%
CC(C)CCCC(=O)CCCCCCC(=O)CCN(O)C(=O)C(N)CO.O=S(=O)(O)O (centres unmarked) [NSC106997] | -28.98%
O=C1Nc2ccc(Br)cc2/C1=C/C(=O)c1ccccc1 [NSC294961] | -25.63%
O=C(OCC12CC3CC(CC(C3)C1)C2)c1ccc(NCc2cc(O)ccc2O)cc1 [NSC689857] | -0.01%
[O-][n+]1ccccc1[S-].[O-][n+]1ccccc1[S-].[Zn+2] [NSC68093] | -17.03%
COc1ccc2cccc(C(=N)c3ccc(C)c4c3CCC4)c2c1 [NSC625590] | -11.59%
COc1cc([C@@H]2c3cc4c(cc3C[C@H]3COC(=O)[C@@H]32)OCO4)cc(OC)c1OC [NSC403148] | -8.59%
C=C1C(=O)OC2C1CC1OC2C(C)CCC/C(C)=C\CCC1(C)O (centres unmarked) [NSC282752] | -63.64%
COC(=O)C1CCC(=O)N1C(c1ccc(OC)cc1)c1cc(OC)c(OC)c(OC)c1 (centres unmarked) [NSC673622] | -14.54%
O=C1C=C(Nc2cccnc2)c2ccccc2C1=O [NSC637729] | -66.55%
O=C1NC(c2cccc3ccccc23)Nc2ccc(Cl)cc21 (centres unmarked) [NSC175636] | -17.73%
N#CC1CC(c2ccccc2)Nc2cc(Cl)ccc2N1 (centres unmarked) [NSC155595] | -11.00%
C(=N\NC1=NCCN1)/c1c2ccccc2c(/C=N/NC2=NCCN2)c2ccccc12 [NSC337766] | -53.76%
Cc1nc2c(nc1C)C(=O)c1ccccc1C2=O [NSC602617] | -40.33%
COc1ccc(OC)c2nc3c(C(=O)NCCN(C)C)cccc3nc12.Cl [NSC678917] | -41.85%
CCN(CC)CCNC(=O)c1nn(-c2ccc(Cl)cc2)c2c1CCc1cc(OC)ccc1-2 [NSC288010] | -45.22%
Cc1c(C(=O)C/C(=N\O)C(=O)Nc2cc(Cl)c(Cl)cc2Cl)[n+](=O)c2ccccc2n1[O-] [NSC635544] | -233.40%
CC(C)(C)c1ccc(O)c(CN(Cc2cc(C(C)(C)C)ccc2O)C2CCCCC2)c1 [NSC48151] | -66.17%
CCOC(=O)Nc1nc2ccc(Cn3cccc3)cc2[nH]1 [NSC639754] | -8.79%
COc1c2c(c(OC)c3c1c(=O)c1ccccc1n3C)OCO2 [NSC34757] | -24.18%
Cc1ccccc1NC(=O)C(=O)C(c1cnc2ccc([N+](=O)[O-])cc2n1)[N+](=O)[O-] (centres unmarked) [NSC644735] | -56.47%
O=C(O)c1cc(CCc2cc(O)ccc2O)ccc1O [NSC655255] | -35.82%
COc1ccc2[nH]c3c(C)c4ccncc4c(C)c3c2c1 [NSC69187] | -16.81%
Oc1cc(-n2cccn2)c(O)cc1-n1cccn1 [NSC645987] | -40.48%

SMILES | MEAN CpLDH INHIBITION (%)
Cc1c(Cl)cccc1NC(=O)c1cccc([N+](=O)[O-])c1O [NSC328477] | -31.70%
CN(CCc1ccccn1)c1ccc2c(c1)C(=O)c1ccccc1-2 [NSC24048] | -65.48%
Cc1ccc(S(=O)(=O)ON=C2CC(c3ccccc3)N(C)C(c3ccccc3)C2)cc1 (centres unmarked) [NSC351306] | -39.05%
NS(=O)(=O)c1nc2nc[nH]c(=O)c2[nH]1 [NSC635448] | -5.65%
Cc1cc(Cl)cc2c1NC(=O)C2(O)C(C(=O)c1ccccc1)c1ccccc1 (centres unmarked) [NSC635435] | -63.48%
O=C(CC(=O)c1ccccc1NC1=Cc2ccccc2C(=O)C1=O)C(=O)NC1=C(Cl)C(=O)c2ccccc2C1=O [NSC641245] | -19.61%
C=C(C#N)C(=O)OCC(CC)CC.C=C(C#N)C(=O)OCC(CC)CC.CS(C)=O.CS(C)=O.Nc1c(N=Nc2ccc(-c3ccc(N=Nc4cc(S(=O)(=O)[O-])c5ccccc5c4N)cc3)cc2)cc(S(=O)(=O)[O-])c2ccccc12.[Pt+2] [NSC615593] | -2.09%
Cc1nc(C(N)=S)sc1C(=O)CC(=O)C(=O)Nc1c(C(C)C)cccc1C(C)C [NSC642048] | -4.29%
CCOC(=O)CCn1ncc(Cl)c(Cl)c1=O [NSC634471] | -23.23%
O=C1NC(c2cccc3ccccc23)Nc2ccccc21 (centres unmarked) [NSC145669] | 0.07%
COc1cccc(/C=N\NC(=O)C(C)SC(C)C(=O)N/N=C/c2cccc(OC)c2)c1 (centres unmarked) [NSC56737] | -38.88%
CCN(CC)CCCC(C)NC(=O)c1ccc2c(c1)C(=O)c1ccccc1C2=O.Cl (centres unmarked) [NSC331757] | -61.61%
O=S1(=O)OCCOS(=O)(=O)C1Cc1ccccc1 [NSC634863] | -18.12%
CC(C)C1(Cl)CCC2C3(C)CCCC(C)(C(=O)O)C3CC(Cl)C2(Cl)C1Cl (centres unmarked) [NSC2979] | -29.91%
COc1ccc(C2C(C)C(=O)C(C)C(c3ccc(OC)cc3)N2N=O)cc1 (centres unmarked) [NSC626734] | -0.09%
NC(=O)c1cn([C@@H]2O[C@H](CO)[C@@H](O)[C@H]2O)c2ncnc(N)c12 [NSC65346] | -11.87%
CC(C)C1=CC2=CC[C@@H]3[C@](C)(CCC[C@@]3(C)C(=O)O)[C@H]2CC1 [NSC25149] | -16.60%
CCNC(=O)OCc1c(COC(=O)NCC)c(-c2ccc(Cl)c(Cl)c2)n2c1CCC2 [NSC267700] | -49.53%
COC1C(C)OC(OC2CC(C)(O)Cc3cc4c(c(O)c32)C(=O)c2c(O)cc3c(c2C4=O)OC2OC3(C)C(O)C(N(C)C)C2O)C(OC)C1(C)OC (centres unmarked) [NSC265450] | -83.48%
C[C@@H]1C[C@H]2CC[C@H](O2)[C@H](C)C(=O)O[C@@H](C)C[C@@H]2CC[C@@H](O2)[C@@H](C)C(=O)O[C@H](C)C[C@H]2CC[C@H](O2)[C@H](C)C(=O)O[C@@H](C)C[C@@H]2CC[C@@H](O2)[C@@H](C)C(=O)O1 [NSC52141] | -100.84%
C(=C/c1nc2ccccc2o1)/c1ccc2c(c1)OCO2 [NSC176655] | -23.23%
Cc1ccccc1NC(=O)/C=N/O [NSC625639] | -116.71%
COCCOC1=C(Cl)C(=O)c2c(O)ccc(O)c2C1=O [NSC659997] | -9.35%
CCCc1c(Cl)nc(Cl)nc1Cl [NSC66914] | -32.10%
CC(C)(Br)C(=O)C(Br)Br [NSC1027] | -2.97%
Cc1ccc(N=N/C(=N\NC(=O)c2ccc(C)cc2)c2ccc(N(CCC#N)CCC#N)cc2C)cc1 [NSC703550] | -165.27%

SMILES | MEAN CpLDH INHIBITION (%)
C/C(=N\N=C(/[Se])N1CC2CCC(CC2)C1)c1ccccn1 [NSC323241] | -23.75%
O=C1c2ccccc2C(=O)c2c(NCCNCCO)ccc(O)c21 [NSC299187] | -23.00%
Cc1ccc(S(=O)(=O)NC(=O)NC2=NC(C)(C)N(c3ccc(Cl)c(Cl)c3)C(N)=N2)cc1 [NSC603624] | -12.73%
Cc1c(Cl)cccc1NC(=O)/C=C/c1ccccc1 [NSC191392] | -18.93%
Nc1ccn([C@@H]2C=C(CO)[C@@H](O)[C@H]2O)c(=O)n1 [NSC375575] | -28.69%
CC(C)c1ccc(O)c(=O)cc1 [NSC18805] | -40.28%
Cn1ncc2cc3c(Nc4ccc(Cl)cc4)cccc3nc21 [NSC622732] | -35.66%
CCCCCCCCCCCCC(O)C(=O)O (centres unmarked) [NSC18938] | -83.85%
CC1Oc2cc3c(-c4c(O)cc(O)c5c(O)c6c(cc45)OC(C)C(C)C6=O)c(O)cc(O)c3c(O)c2C(=O)C1C (centres unmarked) [NSC345647] | -176.19%
O=C1C(=O)c2ccccc2C(O)=C1CC=C(Cl)Cl [NSC126771] | -15.17%
COC1=C(C)C(=O)C2=C(C1=O)C(CO)N1C(C#N)C3CC4C(C1C2N1CCOC41)N3C (centres unmarked) [NSC349644] | -64.47%
CCCC(=O)[O-].[Na+] [NSC174280] | -5.75%
COc1ccc2c(O)c3[n+](cc2c1OC)CCc1cc2c(cc1-3)OCO2 [NSC123390] | -31.27%
CCN(CC)CCCNc1ncc(C)c2[nH]c3ccncc3c12.O=C(O)/C=C\C(=O)O [NSC625331] | -26.39%
COc1cc(/C=C2\S/C(=N/Nc3nc(-c4ccc(Br)cc4)cs3)NC2=O)cc(OC)c1OC [NSC657457] | -150.87%
CCC[CH2][Pb]([Cl])([CH2]CCC)[CH2]CCC [NSC168597] | -54.94%
CC(=O)NCCCCCCNC(C)=O [NSC95580] | -114.38%
CO[C@H]1C[C@H](O[C@H]2CC[C@]3(C=O)[C@H]4CC[C@]5(C)[C@@H](C6=CC(=O)OC6)CC[C@]5(O)[C@@H]4CC[C@]3(O)C2)O[C@H](C)[C@H]1O[C@@H]1O[C@H](CO[C@@H]2O[C@H](CO)[C@@H](O)[C@H](O)[C@H]2O)[C@@H](O)[C@H](O)[C@H]1O [NSC7530] | -3.24%
Cc1ccc([S+](c2ccccc2)c2cc(C)ccc2C)cc1.O=C(OC(C(=O)[O-])C(OC(=O)c1ccccc1)C(=O)O)c1ccccc1 (centres unmarked) [NSC116693] | -151.85%
NC(=S)N/N=C/c1ccc(OC(=O)COc2ccccc2Cl)cn1 [NSC185056] | -5.23%
CCC[CH2][Sn]1([CH2]CCC)[S]CC[N]1S(=O)(=O)c1ccc(C)cc1 [NSC183359] | -29.84%
COc1ccc2cc(CN3CCC(C4CCN(Cc5ccc6cc(OC)ccc6c5)CC4)CC3)ccc2c1.Cl [NSC683792] | -73.55%
COC(=O)[C@@H]1[C@H](O)[C@H](C)[C@H](O)[C@H](C)/C=C\C=C(/C)C(=O)Nc2c(C)c(OC(C)=O)c3c(c2O)C(=O)C(C)=C2OCOC(=C23)/C(C)=C/[C@@](C)(O)[C@H](O)[C@@H](C)[C@H]1O [NSC19990] | -27.23%
COc1ccc(-c2cc(=O)c3c(O)cc(O)cc3o2)cc1OC [NSC128305] | -10.13%
NC(=O)NO [NSC32065] | -2.35%

Reference: publication PMC6687188, “Novel lactate dehydrogenase inhibitors with in vivo efficacy against Cryptosporidium parvum” (PLoS Pathogens, 2019)
